Measured values published in patent publication US8790934B2, “Nanoparticles” (Consejo Superior de Investigaciones Cientificas, priority 2000, dated 2014).

Assay: solubility in methanol and water
Format: physicochemical
Conditions: for solubility in methanol: methanol (MeOH)
Method: Synthesis of glyconanoparticles: A solution of disulphide 1,2, or 3 (0.012M, 5.5 eq) in MeOH was added to a solution of tetrachloroauric acid (0.025M, 1 eq) in water. NaBH4 (1M, 22 eq) in water was added in small portions with rapid stirring. The black suspension that was formed was stirred for additional 2 hours and the solvent was then removed under vacuum. The crude of the reaction was washed with MeOH and was centrifuged for 10 minutes. The methanol was removed and the process was repeated several times until the starting material was not detected by TLC. The glyco-nanoparticles are completely insoluble in MeOH but quite soluble in water. • They were purified by dialysis: 50 mg of crude product was dissolved in 10 mL of water (NANOpure). This solution was loaded into 10 cm segments of cellulose ester dialysis membrane (SIGMA, MWCO=12400) and placed in 4 L of water (NANOpure). The dark glyconanoparticles solution was collected from the dialysis segments and lyophilized. The products obtained were free of salts and starting material (absence of signals due to disulphide and Na^+ in NMR).
The presentation of the carbohydrate molecules at the nanoparticles surface was then investigated. The molecular properties of the neoglycoconjugates 1, 2 and 3 suffer a differential change after attaching them to the gold surface. […] The Le^x derivative 3 is soluble in methanol and water, its nanoparticle 3-Au, however, is insoluble in methanol and very soluble in water. These differences in solubility can be used to purify the glyconanoparticles from the non-reacted disulfides by washing them with methanol. However, the most significant fact in these changes is that they reveal the influence of clustering at the surface on the carbohydrate presentation to the surrounding.

Row | SMILES | solubility in methanol | solubility in water
1 | OCC1OC(OC2C(CO)OC(OCCCCCCCCCCCSSCCCCCCCCCCCOC3OC(CO)C(OC4OC(CO)C(O)C(O)C4O)C(O)C3O)C(O)C2O)C(O)C(O)C1O (stereo not shown) [Compound 2] | soluble | insoluble
2 | CC(=O)N[C@H]1[C@H](OCCCCCCCCCCCSSCCCCCCCCCCCO[C@@H]2O[C@H](CO)[C@@H](O[C@@H]3O[C@H](CO)[C@H](O)[C@H](O)[C@H]3O)[C@H](O[C@@H]3O[C@@H](C)[C@@H](O)[C@@H](O)[C@@H]3O)[C@H]2NC(C)=O)O[C@H](CO)[C@@H](O[C@@H]2O[C@H](CO)[C@H](O)[C@H](O)[C@H]2O)[C@@H]1O[C@@H]1O[C@@H](C)[C@@H](O)[C@@H](O)[C@@H]1O [Compound 3] | soluble | soluble
